The test system of series [1] is human gastric cancer SNU-16 xenografts. Put plainly: Growth of subcutaneous xenografts of human gastric cancer SNU-16 in nude mice (HuFGFR267 study). It counts as in vivo. Conditions: for Relative tumor volume RTV (mean ± SD): SNU-16, 12.5 mg/kg orally once a day; for Weight (g, mean ± SD): SNU-16 tumor-bearing mice, 12.5 mg/kg orally once a day. How it is done:
The diameter of the subcutaneously implanted tumor in nude mice was measured by a vernier caliper. […] In the compound HuFGFR267 50 mg/kg group, the compound was formulated with 0.5% methylcellulose (MC) to the required concentration before use. […] The positive control drug AZD4547 was diluted to the required concentration with water for injection containing 1% Tween 80 before use. […] In the solvent control group, an equal amount of water for injection was administrated.

The test system of series [2] is human lung cancer NCI-H1581 xenografts. The series is described as follows: Growth of subcutaneous xenografts of human lung cancer NCI-H1581 in nude mice. It counts as in vivo. The settings on record: for Relative tumor volume RTV (mean ± SD): NCI-H1581, 12.5 mg/kg orally once a day; for Weight (g, mean ± SD): NCI-H1581 tumor-bearing mice, 12.5 mg/kg orally once a day. As to the method:
The diameter of the subcutaneously implanted tumor in nude mice was measured by a vernier caliper. […] In the compound HuFGFR267 50 mg/kg group, the compound was formulated with 0.5% methylcellulose (MC) to the required concentration before use. The formulation of compound was prepared once a week, and orally administered once a day for 14 days. The positive control drug AZD4547 was diluted to the required concentration with water for injection containing 1% Tween 80 before use. The formulation of AZD4547 was prepared once a week, and orally administered once a day for 14 days. In the solvent control group, an equal amount of water for injection was administrated.
In general terms: Xenograft models place foreign cells or tissue in a host animal.

The target in series [3] is KDR (Homo sapiens, UniProt P35968). The series is described as follows: Inhibition of receptor tyrosine kinase activity at molecular level (ELISA, Poly(Glu,Tyr)4:1 substrate phosphorylation). It counts as biochemical. Conditions: for 10 nM inhibition ratio KDR: 10 nM compound, average of two independent experiments. As to the method:
(§1) Enzyme reaction substrate Poly(Glu, Tyr)4:1 was diluted with potassium-free PBS (10 mM sodium phosphate buffer, 150 mM NaCl, pH 7.2-7.4) to 20 μg/mL. […] The reaction was conducted under 37° C. for 12-16 hours. After the liquid was removed from the wells, the plate was washed three times with 200 μL/well of T-PBS (PBS containing 0.1% Tween-20), each for 5 minutes. The enzyme plate was dried in 37° C. dryer for 1-2 hours.
(§2) 50 μL ATP solution diluted with buffer (50 mM HEPES pH 7.4, 50 mM MgCl2, 0.5 mM MnCl2, 0.2 mM Na3VO4, 1 mM DTT) to a final concentration of 5 μM was added into each well. The compound was diluted with DMSO to a suitable concentration (1 μL/well) or the well contained the corresponding concentration of DMSO (negative control well) Then various kinase recombinant proteins diluted with 49 μL of reaction buffer was added to initiate the reaction. Each experiment required duplicate enzyme-free control well. The reaction was carried out for 1 hour on a 37° C. Shaker (100 rpm). The plate was washed three times with T-PBS. A dilution of the primary antibody PY99 was added (100 μL/well), and the reaction was conducted in a shaker at 37° C. for 0.5 hr. The plate was washed three times with T-PBS. A dilution of the horseradish peroxidase-labeled goat anti-mouse IgG secondary antibody was added (100 μL/well), and the reaction was conducted in a shaker at 37° C. for 0.5 hour. Plate was washed with T-PBS for three times. 2 mg/mL OPD coloration solution (diluted with 0.1 M citric acid-sodium citrate buffer containing 0.03% H2O2 (pH=5.4)) was added (100 μL/well), reacted for 1-10 minutes at 25° C. in dark. The reaction was quenched with 2M H2SO4 (50 μL/well), and read at 490 nm using a tunable microplate reader SPECTRA MAX 190.
(§3) The inhibition ratio of the sample was determined by the following formula: […]
(§4) The IC50 values were obtained via four-parameter regression analysis using the software supplied with the microplate reader.
(In an ELISA, binding on a coated surface is turned into a signal by an enzyme label.)

Series [4] concerns the target FGFR1 (Homo sapiens, UniProt P11362). Described as above. It counts as biochemical. Conditions: for inhibition ratio FGFR1 (100 nM): 100 nM compound. How it is done: as §1, §2, §3, §4
In series [5] the target is RET (Homo sapiens, UniProt P07949). Described as above. It counts as biochemical. The settings on record: for 10 nM inhibition ratio RET: 10 nM compound, average of two independent experiments. How it is done: as §1, §2, §3, §4
RET, sequence (P07949 29-1114): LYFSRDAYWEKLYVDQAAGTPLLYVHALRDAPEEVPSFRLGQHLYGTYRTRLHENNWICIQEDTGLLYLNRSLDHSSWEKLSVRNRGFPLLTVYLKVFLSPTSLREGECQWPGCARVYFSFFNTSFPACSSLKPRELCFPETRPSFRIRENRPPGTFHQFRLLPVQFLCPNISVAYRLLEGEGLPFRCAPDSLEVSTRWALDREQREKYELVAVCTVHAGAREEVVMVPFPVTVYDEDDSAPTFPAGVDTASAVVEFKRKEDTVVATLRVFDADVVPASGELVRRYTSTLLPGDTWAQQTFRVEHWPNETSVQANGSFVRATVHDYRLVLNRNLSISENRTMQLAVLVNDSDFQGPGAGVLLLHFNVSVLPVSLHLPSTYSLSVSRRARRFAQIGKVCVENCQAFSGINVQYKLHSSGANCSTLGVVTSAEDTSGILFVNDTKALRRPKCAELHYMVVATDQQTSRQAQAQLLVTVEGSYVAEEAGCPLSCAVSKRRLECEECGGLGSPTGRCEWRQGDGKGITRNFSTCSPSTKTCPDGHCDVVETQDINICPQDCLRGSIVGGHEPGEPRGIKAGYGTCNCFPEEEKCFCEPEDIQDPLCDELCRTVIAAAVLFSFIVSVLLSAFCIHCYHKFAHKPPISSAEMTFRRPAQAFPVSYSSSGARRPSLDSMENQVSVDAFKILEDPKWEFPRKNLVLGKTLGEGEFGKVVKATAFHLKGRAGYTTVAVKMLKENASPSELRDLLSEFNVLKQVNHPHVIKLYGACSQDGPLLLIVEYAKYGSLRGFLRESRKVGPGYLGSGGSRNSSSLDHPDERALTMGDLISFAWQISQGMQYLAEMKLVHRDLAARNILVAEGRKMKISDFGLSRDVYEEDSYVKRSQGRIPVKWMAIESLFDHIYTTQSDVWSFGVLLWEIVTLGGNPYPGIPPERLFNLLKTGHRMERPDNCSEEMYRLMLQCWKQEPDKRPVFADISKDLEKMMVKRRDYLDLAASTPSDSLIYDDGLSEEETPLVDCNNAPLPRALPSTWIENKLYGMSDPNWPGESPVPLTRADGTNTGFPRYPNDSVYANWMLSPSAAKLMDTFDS

KDR, sequence (P35968 20-1356): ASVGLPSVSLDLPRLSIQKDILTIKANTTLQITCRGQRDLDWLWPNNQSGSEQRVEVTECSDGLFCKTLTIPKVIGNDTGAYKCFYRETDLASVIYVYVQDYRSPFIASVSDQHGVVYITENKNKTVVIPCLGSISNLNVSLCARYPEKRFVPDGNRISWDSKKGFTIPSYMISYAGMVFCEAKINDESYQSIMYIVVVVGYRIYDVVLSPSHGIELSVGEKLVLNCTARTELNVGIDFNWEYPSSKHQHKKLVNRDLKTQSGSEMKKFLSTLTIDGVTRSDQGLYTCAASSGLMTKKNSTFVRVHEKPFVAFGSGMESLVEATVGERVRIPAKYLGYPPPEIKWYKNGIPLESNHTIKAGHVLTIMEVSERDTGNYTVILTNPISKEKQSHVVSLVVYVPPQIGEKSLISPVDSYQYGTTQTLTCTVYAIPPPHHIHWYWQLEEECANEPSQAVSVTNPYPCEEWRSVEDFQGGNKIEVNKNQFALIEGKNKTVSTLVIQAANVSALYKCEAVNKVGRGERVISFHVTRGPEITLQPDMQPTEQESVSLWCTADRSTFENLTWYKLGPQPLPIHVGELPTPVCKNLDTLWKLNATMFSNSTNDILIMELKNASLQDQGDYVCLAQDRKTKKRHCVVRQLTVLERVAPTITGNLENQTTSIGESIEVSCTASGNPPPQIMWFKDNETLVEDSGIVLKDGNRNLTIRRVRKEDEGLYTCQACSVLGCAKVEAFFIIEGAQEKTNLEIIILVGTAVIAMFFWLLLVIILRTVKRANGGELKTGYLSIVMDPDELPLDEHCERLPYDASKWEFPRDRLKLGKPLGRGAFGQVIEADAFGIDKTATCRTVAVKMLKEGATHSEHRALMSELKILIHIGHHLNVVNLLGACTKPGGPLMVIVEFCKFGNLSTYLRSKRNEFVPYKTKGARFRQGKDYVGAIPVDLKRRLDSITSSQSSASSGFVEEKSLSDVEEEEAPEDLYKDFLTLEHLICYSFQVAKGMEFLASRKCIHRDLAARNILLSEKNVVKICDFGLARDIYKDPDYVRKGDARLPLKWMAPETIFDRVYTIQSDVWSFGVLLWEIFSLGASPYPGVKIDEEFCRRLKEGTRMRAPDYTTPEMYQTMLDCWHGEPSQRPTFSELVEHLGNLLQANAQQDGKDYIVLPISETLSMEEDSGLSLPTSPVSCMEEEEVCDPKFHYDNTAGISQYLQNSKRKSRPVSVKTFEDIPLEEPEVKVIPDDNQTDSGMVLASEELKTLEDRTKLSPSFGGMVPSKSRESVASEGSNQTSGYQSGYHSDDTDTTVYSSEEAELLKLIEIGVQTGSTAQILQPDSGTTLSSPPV
FGFR1, sequence (P11362 22-822): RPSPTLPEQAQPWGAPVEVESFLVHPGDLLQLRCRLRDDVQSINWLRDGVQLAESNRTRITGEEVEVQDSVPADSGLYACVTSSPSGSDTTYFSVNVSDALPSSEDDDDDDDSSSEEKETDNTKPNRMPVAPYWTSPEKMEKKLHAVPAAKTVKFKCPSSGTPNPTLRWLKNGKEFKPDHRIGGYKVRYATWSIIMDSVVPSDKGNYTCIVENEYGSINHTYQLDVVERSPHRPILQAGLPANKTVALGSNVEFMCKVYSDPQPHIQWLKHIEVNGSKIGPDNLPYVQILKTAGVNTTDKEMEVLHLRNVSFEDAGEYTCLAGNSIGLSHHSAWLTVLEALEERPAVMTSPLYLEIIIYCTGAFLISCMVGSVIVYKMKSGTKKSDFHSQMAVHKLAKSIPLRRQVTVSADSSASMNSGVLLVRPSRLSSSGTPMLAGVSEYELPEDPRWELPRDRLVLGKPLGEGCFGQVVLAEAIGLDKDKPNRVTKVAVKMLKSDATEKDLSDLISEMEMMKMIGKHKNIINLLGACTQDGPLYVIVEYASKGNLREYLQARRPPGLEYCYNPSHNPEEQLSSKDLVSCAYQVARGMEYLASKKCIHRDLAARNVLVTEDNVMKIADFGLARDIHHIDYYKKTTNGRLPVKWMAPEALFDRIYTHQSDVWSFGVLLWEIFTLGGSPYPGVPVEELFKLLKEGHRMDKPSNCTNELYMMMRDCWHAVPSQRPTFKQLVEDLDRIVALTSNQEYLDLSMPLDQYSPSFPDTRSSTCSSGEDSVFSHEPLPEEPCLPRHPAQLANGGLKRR

On to `COc1cc(CCc2cc(NC(=O)c3ccc(N4C[C@@H](C)N[C@@H](C)C4)cc3)n[nH]2)cc(OC)c1` [AZD4547, reference compound], for which the “relative tumor proliferation rate T/C” value was determined as 18.46% in series [1] (SNU-16, 12.5 mg/kg orally once a day for 21 days, day 21) and 24.03% in series [2] (NCI-H1581, 12.5 mg/kg orally once a day for 14 days, 14th day). Also, the “Relative tumor volume RTV (mean ± SD)” value is recorded as 1.00 ± 0.00 in series [1] (d0); 0.92 ± 0.29 in series [1] (d3); 2.34 ± 1.23 in series [1] (d7); 2.96 ± 2.19 in series [1] (d10); 3.36 ± 3.14 in series [1] (d14); 3.77 ± 2.56 in series [1] (d17). In addition, the “Relative tumor volume RTV (mean ± SD)” value in series [1] (d21) is given as 4.33 ± 3.29; in series [2] (d0), 1.00 ± 0.00; in series [2] (d3) it was 1.27 ± 0.44; in series [2] (d7), 3.43 ± 1.14; in series [2] (d10) it was 5.57 ± 3.62; in series [2] (d14), 13.81 ± 4.56. Besides, the “animal deaths during the experiment” value in series [1] (SNU-16, each group (HuFGFR267 50 and 25 mg/kg, AZD4547 12.5 mg/kg)) is “no mice died”; in series [2] (NCI-H1581, each group (HuFGFR267 50 mg/kg, AZD4547 12.5 mg/kg)) it was “no mice died”. The “Weight (g, mean ± SD)” value in series [1] (d0) is listed as 18.8 ± 1.2 g; in series [1] (d3), 19.5 ± 1.3 g; in series [1] (d7), 20.0 ± 1.5 g; in series [1] (d10) it was 20.7 ± 1.5 g; in series [1] (d14) it was 21.1 ± 1.6 g; in series [1] (d17) it was 20.9 ± 1.7 g. For the same molecule, the “Weight (g, mean ± SD)” value was 21.0 ± 1.7 g in series [1] (d21); 18.2 ± 1.6 g in series [2] (d0); 19.3 ± 1.6 g in series [2] (d3); 20.1 ± 1.9 g in series [2] (d7); 20.6 ± 2.2 g in series [2] (d10); 21.3 ± 2.3 g in series [2] (d14).

Regarding `COc1ncccc1C#Cc1cc(C(=O)Nc2ccc(CN3CCN(C)CC3)c(C(F)(F)F)c2)ccc1Cl` [HuFGFR148, reference compound], the “10 nM inhibition ratio KDR” value in series [3] is given as 18.2. Besides, in series [4], the “inhibition ratio FGFR1 (100 nM)” value turned out to be 22.4. In addition, in series [5], the “10 nM inhibition ratio RET” value is reported as 21.7.

Turning to `CN1CCN(Cc2ccc(NC(=O)c3ccc(Cl)c(C#Cc4cccnc4F)c3)cc2C(F)(F)F)CC1` [HuFGFR150, reference compound], the “10 nM inhibition ratio KDR” value in series [3] came out at 32.3. Besides, in series [4] (10 nM compound, average of two independent experiments), the “10 nM inhibition ratio FGFR1” value was 35.1. In series [5], the “10 nM inhibition ratio RET” value stood at 30.3.

Turning to `CN1CCN(Cc2ccc(NC(=O)c3ccc(Cl)c(C#Cc4ccc(N)nc4)c3)cc2C(F)(F)F)CC1` [HuFGFR151, reference compound], the “inhibition ratio KDR (100 nM)” value in series [3] (100 nM compound) turned out to be 23.9. Also, the “inhibition ratio FGFR1 (100 nM)” value in series [4] is recorded as 21.1. Besides, the “inhibition ratio RET (100 nM)” value in series [5] (100 nM compound) is listed as 29.7.
